Measurements published in patent US12048306B1, “1,3-bis(naphthalen-1-yloxy)propan-2-one as an eco-friendly insecticidal agent against Spodoptera littoralis (boisd.)” (priority 2023, dated 2024).
In brackets after ≈: the same amount, converted by molar mass. Where two headings read alike, the source gives them in different places.

Key:
Spodoptera littoralis [1] = test: Insecticidal leaf dip bioassay on S. littoralis larvae; settings: for Toxicity ratio: 72 hours, fenoxycarb's LC50 / the compound's LC50; for LC50: Spodoptera littoralis, foliar, laboratory strain, 72 hours of treatment
Experimental: (§1) Five concentrations (200, 100, 50, 25, 12.5 ppm) were designed for this synthetic compound and the reference fenoxycarb's compound as the dynamic ingredients based on ppm via diluting the commercial formulation.
(§2) In this experiment, the synthetic compound was tested for its insecticidal bioactivity using the industry-standard leaf dip bioassay techniques. […] Until usage, the stocks were kept in a refrigerator. The target substance test results were noted & the concentrations needed to destroy 50% (LC50) of S. littoralis larvae were calculated. The target compound was employed in five different concentrations, & 0.1% Tween 80 was employed as a surfactant. Castor bean leaf discs (nine centimeters in diameter) were dipped in the concentration under test for ten seconds, then fed to 2th & 4th larvae, which were roughly the same size and housed in glass jars (five pound). Each action carried out 3 times with ten larvae each. The mortality equalized via Abbott's formula. Calculations of mortality setback line were measurably rummage via probity analysis. Harmfulness index was strongminded via sun equations. The mortality results of larval insect were estimated through employing probit analysis through a statistics (LDP-line) equation which estimate the LC50 values with 95% fiducially limits of lower, upper confidence limit and slope.

Spodoptera littoralis [2] = settings: in vivo
Experimental: as §1, §2

aquatic insects = settings: highly toxic to very highly toxic; cited from earlier work

Row | Structure (SMILES) | Toxicity ratio (Spodoptera littoralis [1]; 2nd instar larvae) | Toxicity ratio (Spodoptera littoralis [1]; 4th instar larvae) | LC50 (Spodoptera littoralis [1]; 72 h, 2nd instar larvae) | LC50 (Spodoptera littoralis [1]; 72 h, 4th instar larvae) | LC50 (Spodoptera littoralis [2]) | insecticidal activity against Spodoptera littoralis (Spodoptera littoralis [1]; 2nd and 4th instar larvae, 72 h, FIGS. 1A-1B, compared with the reference insecticide) | LC50 (aquatic insects)
1 | CCOC(=O)NCCOc1ccc(Oc2ccccc2)cc1 [Fenoxycarb, fenoxycarb, reference compound] | 1 | 1 | 2.73 mg/L (≈ 9.06 µM) | 9.18 mg/L (≈ 30.5 µM) |  |  | 
2 | O=C(COc1cccc2ccccc12)COc1cccc2ccccc12 [III, 1,3-bis(naphthalen-1-yloxy)propan-2-one] | 0.241 | 0.515 | 11.3 mg/L (≈ 33.1 µM) | ~17.8 mg/L (≈ 52 µM) | about 11.32 mg/L | active | 
3 | CCc1ccc(C(=O)NN(C(=O)c2cc(C)cc(C)c2)C(C)(C)C)cc1 [tebufenozide] |  |  |  |  |  |  | 100 to 1000 mg/L
